Results from US7485721B2, “Substituted porphyrins” (Duke University, priority 2002, dated 2009).

Experiments:
[1] = equilibrium H3P^5+ = H2P^4+ + H^+; cited from earlier work
[2] = stroke, diabetes, sickle cell disease, cancer/radiation; cited from earlier work
[3] = Thin-layer chromatography, retention factor Rf as lipophilicity; type: physicochemical; details: silica gel TLC plates, 1:1:8 KNO3-saturated H2O:H2O:acetonitrile; for Rf (compound path/solvent path): Mn(III) complex; for Rf (compound path/solvent path), metal-free porphyrin (in parentheses): corresponding metal-free porphyrin H2T(alkyl)-2-PyP^4+
Excerpt: Thin-layer chromatography. All ligands and their Mn(III) complexes were chromatographed on silica gel TLC plates using 1:1:8 KNO3-saturated H2O:H2O: acetonitrile. The atropoisomers could not be separated for the methyl^19 and ethyl analogues,^24 they begin to separate for the n-propyl and n-butyl species and were clearly resolved with the n-hexyl and n-octyl compounds.
Thin Layer Chromatography. The increase in the length of the alkyl chains is accompanied by an increase in the lipophilicity of the compounds as indicated by the increase in the retention factor Rf (porphyrin path/solvent path) (Table 1, FIG. 2). […] As the chains lengthen, their contribution to the overall lipophilicity increases, and eventually the n-octyl porphyrin and its Mn(III) complex are more alike in Rf than are methyl analogues.

[4] = Spectrophotometric proton dissociation constant pKa2; type: physicochemical; details: of the metal-free porphyrin H2T(alkyl)-2-PyP^4+; 25° C., ionic strength 0.10 (NaNO3/NaOH)
Method: Uv/vis spectroscopy. The uv/vis spectra were taken on a Shimadzu UV-2501 PC spectrophotometer at 25° C. The proton dissociation constants (pKa2), were determined spectrophotometrically at 25° C., at an ionic strength of 0.1 M (NaOH/NaNO3), as previously described.^4
The proton dissociation constants, Ka2 and Ka3 are defined as follows: H2P^4+ ? HP^3++H^+Ka2 [1] H3P^5+ ? H2P^4++H^+ Ka3 [2] As the alkyl chains lengthen the porphyrins become less hydrated and the separation of charges (eq) becomes less favorable, ie. pKa2 increases (FIG. 3 insert).

[5] = test system: SOD-deficient Escherchia coli; details: aerobic conditions; cited from earlier work
[6] = Cyclic voltammetry, metal-centered redox potential E1/2 of Mn(III)/Mn(II) couple; type: physicochemical; details: 0.05 M phosphate buffer (pH 7.8, 0.1 M NaCl)
Method: Electrochemistry. Measurements were performed on a CH Instruments Model 600 Voltammetric Analyzer.^3.4 A three-electrode system in a small volume cell (0.5 mL to 3 mL), with a 3 mm-diameter glassy carbon button working electrode (Bioanalytical Systems), plus the Ag/AgCl reference and Pt auxilliary electrodes was used. Solutions contained 0.05 M phosphate buffer, pH 7.8, 0.1 M NaCl, and […] metalloporphyrin. The scan rates were 0.01-0.5 V/s, typically 0.1 V/s. The potentials were standardized against the potassium ferrocyanide/ferricyanide^20 and/or against Mn^IIITE-2-PyP^5+. All voltammograms were reversible.
Electrochemistry. […] The metal-centered redox potentials, E1/2 are in Table 1 and the representative voltammograms of the Mn^III/IITE-2-PyP^5+/4+ and Mn^III/IITnHex-2-PyP^5+/4+ compounds are shown in the Supporting Material, FIG. 6. Both lipophilicity (FIG. 2B) and E1/2 (FIG. 3B, insert) increase exponentially with the number of CH2 groups in the alkyl chains. Consequently, the increase in E1/2 is a linear function of Rf (FIG. 3B).

[7] = Catalysis of O2^− dismutation, cytochrome c assay (xanthine/xanthine oxidase); type: biochemical; details: 0.05 M phosphate buffer, pH 7.8, (25 ± 1) ° C.
Excerpt: Catalysis of O2^− dismutation. We have previously shown that the O2^− /cytochrome c reduction assay gives the same catalytic rate constants as does pulse radiolysis for Mn^IIITE-2-PyP^5+, {Mn^IIIBVDME}2, {Mn^IIIBV}2 and MnCl2.^21 Therefore the convenient cytochrome c assay was used to characterize the series of Mn(III) N-alkylpyridylporphyrins. The xanthine/xanthine oxidase reaction was the source of O2^− and ferricytochrome c was used as the indicating scavenger for O2^−.^22 The reduction of cytochrome c was followed at 550 nm. Assays were conducted at (25±1) ° C., in 0.05 M phosphate buffer, pH 7.8, 0.1 mM EDTA, in the presence and absence of 15 μg/mL of catalase. Rate constants for the reaction of metalloporphyrins with O2′^− were based upon competition with 10 μM cytochrome c, kcyt c=2.6×10^5 M^−1 s^−1 as described elsewhere.^21 The O2^− was produced at the rate of 1.2 μM per minute. Any possible interference through inhibition of the xanthine/xanthine oxidase reaction by the test compounds was examined by following the rate of urate accumulation at 295 nm in the absence of cytochrome c. No reoxidation of cytochrome c by the metalloporphyrins was observed
Catalysis of O2^− dismutation. […] All of the manganese compounds are potent catalysts of O2^− dismutation with log kcat between 7.79 and 7.25.

[8] = Stability of reduced Mn(II) porphyrins in excess ascorbic acid; details: aerobic, within 125 min; 6 μM, 70-fold excess of ascorbic acid, pH 7.8, 0.1 M tris buffer; reduced Mn(II) form
Method: Therefore, we also examined the behavior of the reduced and more biologically relevant Mn^IIT(alkyl)-2-PyP^4+ compounds. We compared the methyl, n-hexyl and n-octyl derivatives (6 μM) aerobically and anaerobically in the presence of a 70-fold excess of ascorbic acid (pH 7.8, 0.1 M tris buffer) and in the presence and absence of a 150-fold excess of EDTA.

[9] = Mn loss from Mn porphyrins in 12 M HCl; type: physicochemical
Method: The half-lives for the acid and anion-catalyzed removal of zinc from Zn N-methylated derivatives^35 in 1.0 M HNO3 were 89 s for the meta, 165 s for the para, and 19 hours for the ortho ZnTM-2-PyP^4+. […] In addition to porphyrin ring distortion,^29-32 the steric hindrance and solvation effects imposed by the progressively longer alkyl chains may also contribute to the differences in metaladon/demetalation behavior.

[10] = 1.0 M HNO3, within a week; cited from earlier work
[11] = kcat=kred=kox; cited from earlier work

Row | Molecule | Rf (compound path/solvent path) [3] | Rf (compound path/solvent path), metal-free porphyrin (in parentheses) [3] | pKa2 [4] | E1/2 [6] | log kcat [7] | degradation of Mn(II) porphyrin [8] | other results
1 | C[n+]1cccc(-c2c3nc(c(-c4ccc[n+](C)c4)c4ccc([nH]4)c(-c4ccc[n+](C)c4)c4nc(c(-c5ccc[n+](C)c5)c5ccc2[nH]5)C=C4)C=C3)c1 [H2TM-3-PyP^4+] |  |  |  |  |  |  | pKa3 [1]: 1.8
2 | C[n+]1ccc(-c2c3nc(c(-c4cc[n+](C)cc4)c4ccc([nH]4)c(-c4cc[n+](C)cc4)c4nc(c(-c5cc[n+](C)cc5)c5ccc2[nH]5)C=C4)C=C3)cc1 [H2TM-4-PyP^4+] |  |  |  |  |  |  | pKa3 [1]: 1.4
3 | C[n+]1ccccc1-c1c2nc(c(-c3cccc[n+]3C)c3ccc([nH]3)c(-c3cccc[n+]3C)c3nc(c(-c4cccc[n+]4C)c4ccc1[nH]4)C=C3)C=C2.[Mn+3] [Mn^IIITM-2-PyP^5+, Mn(III) meso tetrakis(N-methylpyridinium-2-yl)porphyrin] | 0.09 | 0.13 | 10.9 | +220 mV vs NHE | 7.79 | −40% | protection in rodent models of oxidative stress [2]: offer protection in rodent models of oxidative stress; growth of SOD-deficient E. coli [5]: allow SOD-deficient Escherchia coli to grow under aerobic conditions; Mn lost ([9]; 12 M HCl, within a month): over 50%
4 | CCCC[n+]1ccccc1-c1c2nc(c(-c3cccc[n+]3CCCC)c3ccc([nH]3)c(-c3cccc[n+]3CCCC)c3nc(c(-c4cccc[n+]4CCCC)c4ccc1[nH]4)C=C3)C=C2.[Mn+3] [Mn^IIITnBut-2-PyP^5+] | 0.33 | 0.46 | 11.7 | +254 mV vs NHE | 7.25 |  | 
5 | CCCCCC[n+]1ccccc1-c1c2nc(c(-c3cccc[n+]3CCCCCC)c3ccc([nH]3)c(-c3cccc[n+]3CCCCCC)c3nc(c(-c4cccc[n+]4CCCCCC)c4ccc1[nH]4)C=C3)C=C2.[Mn+3] [Mn^IIITnHex-2-PyP^5+] | 0.57 | 0.63 | 12.2 | +314 mV vs NHE | 7.48 | none | spectral change (Mn loss) ([9]; solid dissolved in 12 M HCl, 3 months): the spectra did not change within 3 months
6 | CCCCCCCC[n+]1ccccc1-c1c2nc(c(-c3cccc[n+]3CCCCCCCC)c3ccc([nH]3)c(-c3cccc[n+]3CCCCCCCC)c3nc(c(-c4cccc[n+]4CCCCCCCC)c4ccc1[nH]4)C=C3)C=C2.[Mn+3] [Mn^IIITnOct-2-PyP^5+] | 0.80 | 0.86 | 13.2 | +367 mV vs NHE | 7.71 | none | 
7 | CCCCCC[n+]1ccccc1-c1c2nc(c(-c3cccc[n+]3CCCCCC)c3ccc([nH]3)c(-c3cccc[n+]3CCCCCC)c3nc(c(-c4cccc[n+]4CCCCCC)c4ccc1[nH]4)C=C3)C=C2.[Zn+2] [ZnTnHex-2-PyP^4+] |  |  |  |  |  |  | zinc loss [10]: No indication of zinc loss was found within a week
8 | CuZn—SOD: CuZn superoxide dismutase enzyme |  |  |  |  |  |  | kcat [11]: 2e+09 M⁻¹ s⁻¹
9 | meso tetrakis(N-ethylpyridinium-2-yl)porphyrins [Mn^IIITE-2-PyP^5+] | 0.13 | 0.21 | 10.9 | +228 mV vs NHE | 7.76 |  | protection in rodent models of oxidative stress [2]: offer protection in rodent models of oxidative stress; growth of SOD-deficient E. coli [5]: allow SOD-deficient Escherchia coli to grow under aerobic conditions
